# Experimental data: patent US12478628B2, “Germ cell nuclear factor ligands and methods of use thereof” (Saint Louis University, priority 2020, dated 2025)
# Legend:
# [1] = target: T1, RXRα LBD (Homo sapiens, UniProt P19793); experiment: DSF specificity assay, RXRα; type: binding
# T1 construct: human RXRα LBD (residues 223-462); hexahistidine tag with 3C protease site; made in house; host or cells: E. coli BL(21) DE3
# T1 sequence (P19793 223-462): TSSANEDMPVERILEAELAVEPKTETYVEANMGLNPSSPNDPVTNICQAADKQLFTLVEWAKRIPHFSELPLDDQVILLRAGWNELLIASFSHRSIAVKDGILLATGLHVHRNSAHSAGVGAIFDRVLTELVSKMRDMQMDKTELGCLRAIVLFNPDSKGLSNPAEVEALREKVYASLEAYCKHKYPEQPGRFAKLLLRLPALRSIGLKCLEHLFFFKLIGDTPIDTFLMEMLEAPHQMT
# Procedure: (§1) Protein Expression and Purification. Human GCNF (NR6A1) LBD (residues 248-480) and mutants F284A/F361A, human LRH-1 (NR5A2) LBD (residues 291-541), human RXRα LBD (residues 223-462), human COUP-TF I LBD (residues 184-410) and human SF-1 LBD (residues 219-461) were subcloned in pET45b(+) plasmid (Novagen) were expressed in E. coli BL(21) DE3 cells in terrific broth with 0.1 mg/mL ampicillin as 3C protease-cleavable hexahistidine-tagged fusion proteins. The bacterial culture was grown at 37° C. to an optical density of 0.8 to 1.0 at 600 nm. Protein expression was induced by adding 1 mM IPTG and was allowed to proceed for 14 h at 22° C. […]
# (§2) DSF Assay. […] A total of 450 compounds (Life Chemicals) previously selected from a nuclear-receptor-biased library targeting REV-ERB were analyzed. Thermal stability was assessed on a Quantstudio 6 instrument (Biosystems) by ramping the temperature from 25° C. to 95° C. at 0.05° C./s and protein melt shifts were subsequently quantified by Boltzmann-derived melting temperature (Tm) using the Protein Thermal Shift (ThermoFisher) software. […]
# [2] = target: T2, chimeric Gal4-DBD human GCNF-LBD (Homo sapiens, UniProt Q15406); experiment: Luciferase cotransfection reporter assay in HEK293 cells; type: cell-based; conditions: read-out: IC50, suppression of GCNF transactivation
# T2 construct: expressed in transfected cells; host or cells: HEK293
# T2 sequence (Q15406 249-480 limits assumed): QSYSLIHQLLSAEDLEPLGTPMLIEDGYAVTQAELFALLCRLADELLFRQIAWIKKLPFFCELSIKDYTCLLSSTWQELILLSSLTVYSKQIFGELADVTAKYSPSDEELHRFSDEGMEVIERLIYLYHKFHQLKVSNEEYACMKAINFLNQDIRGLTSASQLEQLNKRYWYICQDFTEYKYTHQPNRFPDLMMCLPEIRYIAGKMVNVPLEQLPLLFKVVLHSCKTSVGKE
# Procedure: Cell Culture, Cotransfection Assays, and QPCR Analysis. Cotransfection assays were performed in HEK293 cells as previously described (Griffett et al., 2013; Wu et al., 2003; Savkur et al., 2003). Briefly, for dose-response cotransfection assays, a chimeric Gal4-DBD human GCNF-LBD in the pBIND vector was cotransfected with pGL4.35[luc2P/9XGAL4UAS/Hygro] vector (Promega). All cotransfections were normalized to renilla (pGL4.73; Dual-Glo luciferase reagent; Promega) and subsequently DMSO for analysis.
# [3] = target: T3, SF-1 (NR5A1) LBD (Homo sapiens, UniProt Q13285); experiment: DSF specificity assay, SF-1; type: binding
# T3 construct: human SF-1 LBD (residues 219-461); hexahistidine tag with 3C protease site; made in house; host or cells: E. coli BL(21) DE3
# Procedure: as §1, §2
# [4] = target: T4, GCNF LBD (Homo sapiens, UniProt Q15406); experiment: Solution 1H NMR methyl peak perturbation of GCNF LBD; type: binding; conditions: 1.05:1 molar equivalence of ligand; seven shielded resonances monitored
# T4 construct: Human GCNF (NR6A1) LBD (residues 248-480); made in house; host or cells: E. coli BL(21) DE3
# T4 sequence (Q15406 248-480): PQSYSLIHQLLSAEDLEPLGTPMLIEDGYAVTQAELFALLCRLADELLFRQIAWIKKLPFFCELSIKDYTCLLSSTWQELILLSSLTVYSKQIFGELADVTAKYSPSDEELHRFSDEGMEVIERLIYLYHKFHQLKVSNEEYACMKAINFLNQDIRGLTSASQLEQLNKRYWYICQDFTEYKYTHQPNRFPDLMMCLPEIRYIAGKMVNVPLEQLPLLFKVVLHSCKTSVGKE
# Procedure: Solution NMR spectroscopy. One hundred micromolar (100 μM) of GCNF LBD with 10% D2O were mixed with either 0.5% DMSO-d6 or 1.05:1 molar equivalence of ligand and transferred to a Shigemi tube. ^1H NMR data were acquired at 298 K on a 700 MHz Bruker Avance II HDTM NMR instrument equipped with a QCI cryoprobe. For each spectrum, 1024 transients were collected into 32,000 data points, with a spectral width of 16.7 kHz. Data were analyzed using Topspin 3.5 pl 7.
# [5] = target: T4, GCNF LBD; experiment: Differential scanning fluorimetry (DSF) of GCNF LBD; type: binding; conditions: 20 μM ligand; GCNF LBD Tm 41.9±0.6° C.; significance cutoff 2° C.; read-out: increase of melting temperature (ΔTm) of GCNF LBD
# Procedure: DSF Assay. GCNF LBD (5 μM) were mixed with 1× Sypro orange (Invitrogen) in DSF buffer (50 mM HEPES, 50 mM KCl, 5 mM TCEP, 0.5 mM EDTA, pH 7.5). Test compounds was added at 1:1 molar equivalence as protein or replaced with DMSO control. Ten microliters (10 μL)×5 replicates for each sample were plated on 384-well PCR microplate. No protein control and no ligand references were also run simultaneously in 5 replicates on the same plate. A total of 450 compounds (Life Chemicals) previously selected from a nuclear-receptor-biased library targeting REV-ERB were analyzed. Thermal stability was assessed on a Quantstudio 6 instrument (Biosystems) by ramping the temperature from 25° C. to 95° C. at 0.05° C./s and protein melt shifts were subsequently quantified by Boltzmann-derived melting temperature (Tm) using the Protein Thermal Shift (ThermoFisher) software. Positive hits were identified when a thermal shift (ΔTm) of at least 2° C. was observed.
# For the DSF ligand titration assay, ligands 30, 34 and 80 were titrated against 5 μM GCNF LBD with a ligand concentration series of 30, 20, 13, 9, 6, 4, 2.6, 1.7 and 0 μM from a 20 mM DMSO stock solution. DSF assay and analysis was then performed as described above. All DSF data were reported as mean±SEM.
# T3 sequence (Q13285 219-461): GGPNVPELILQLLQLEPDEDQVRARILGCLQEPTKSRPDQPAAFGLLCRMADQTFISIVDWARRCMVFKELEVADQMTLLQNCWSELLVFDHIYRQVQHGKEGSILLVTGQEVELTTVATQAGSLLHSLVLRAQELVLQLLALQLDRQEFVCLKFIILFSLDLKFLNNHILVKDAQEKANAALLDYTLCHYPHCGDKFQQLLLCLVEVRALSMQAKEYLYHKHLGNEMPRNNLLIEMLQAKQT
change of Tm of RXRα LBD [1],IC50 [2] [nM],change of Tm of SF-1 LBD [3],shielded methyl 1H NMR resonances of GCNF LBD perturbed [4],ΔTm at 20 µM [5] [°C],SMILES
did not significantly change,1100,did not significantly change,5 of 7,,"Cc1ccc(-n2ncc3c(N4CCOCC4)nc(NCc4ccco4)nc32)cc1 [Ligand 34, N-[(furan-2-yl)methyl]-1-(4-methylphenyl)-4-(morpholin-4-yl)-1H-pyrazolo[3,4-d]pyrimidin-6-amine]"
did not significantly change,317,did not significantly change,5 out of 7,> 2,"O=C(Cn1cc(S(=O)(=O)c2ccccc2)c2ccccc21)N1CCc2ccccc21 [Ligand 80, 2-[3-(benzenesulfonyl)-1H-indol-1-yl]-1-(2,3-dihydro-1H-indol-1-yl)ethan-1-one]"
